One series has as its target MCL-1 (Homo sapiens, UniProt Q07820). In words: Protein-protein interaction assay MCL-1/Noxa BH3 peptide (MCL-1 assay), TR-FRET. The conditions noted are these: MBP-MCL-1 / Noxa BH3-derived peptide, median. Format: binding. The method, boiled down:
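MBP-MCL-1 (1 nM final) was preincubated 10 min at 22 °C with compounds (11 concentrations, 0.1 nM–20 μM, duplicates) in Tris pH 7 buffer with NaCl, KF, Tween-20, DTT and BGG. After 1 h at 22 °C in the dark plus overnight at 4 °C, anti-MBP Eu-cryptate/streptavidin-XL665 TR-FRET was read; IC50 came from a 4-parameter fit.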
Background: TR-FRET usually uses a lanthanide donor and a delayed reading to cut background.

In series [1] the test system is SUDHL5. In words: Induction of caspase-3/7 activity (Caspase-Glo 3/7), SUDHL5. Format: cell-based. The conditions noted are these: caspase-3/7 induction, SUDHL5 cells, 3 h treatment, median. The method, boiled down:
(§1)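 Caspase-Glo 3/7 luminescence measured after 3 h compound exposure at 37 °C in SUDHL10 and SUDHL5 cells. EC50 values come from background-corrected signals, with curve bottom set to 1 and plateau set to maximal induction by the reference compound.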

The subject of series [2] is SUDHL10. In words: Induction of caspase-3/7 activity (Caspase-Glo 3/7), SUDHL10. Format: cell-based. The conditions noted are these: caspase-3/7 induction, SUDHL10 cells, 3 h treatment, median. The method, boiled down:
as §1

The test system of series [3] is SUDHL5. Nature of the series: Anti-proliferative effect (CellTiter-Glo, 72 h), SUDHL5. The series is classed as cell-based. The conditions noted are these: SUDHL5 cells, antiproliferation, 72 h incubation, median, read-out: Antiproli SUDHL5 [M] (median). Summed up: (§2)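 CellTiter-Glo luminescence readout of viability, taken on a time-zero plate at day 0 and on treated plates after 72 h incubation at 37 °C in a humidified incubator. Reagent incubation 10 min before reading.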
(In ATP-based viability assays light output follows the ATP content of the culture.)

Series [4] relates to SUDHL10. Nature of the series: Anti-proliferative effect (CellTiter-Glo, 72 h), SUDHL10. Format: cell-based. The conditions noted are these: SUDHL10 cells, antiproliferation, 72 h incubation, median, read-out: Antiproli SUDHL10 [M] (median). The method, boiled down:
as §2

The subject of another series is A2780. In words: Anti-proliferative effect (CellTiter-Glo, 72 h), A2780. The series is classed as cell-based. The conditions noted are these: A2780 cells, median, read-out: IC50 antiproliferation assay A2780 [M] (median). The method, boiled down:
as §2

Series [5] concerns SUDHL5. In words: Induction of cytotoxicity (CellTiter-Glo, 5 h), SUDHL5.
For series [6], the system named is SUDHL10. Nature of the series: Induction of cytotoxicity (CellTiter-Glo, 5 h), SUDHL10.
The mark [7] stands for this setting: read-out: Cytotox SUDHL5 [M] (median), SUDHL5 cells, cytotoxicity induction, CellTiter-Glo, 5 h incubation, median.
Setting [8] is: read-out: Cytotox SUDHL10 [M] (median), SUDHL10 cells, cytotoxicity induction, CellTiter-Glo, 5 h incubation, median.
The mark [9] stands for this setting: Homo sapiens, SU-DHL10, 5 h, read-out: Cytotox SUDHL10 [M] (median), SUDHL10 cells, cytotoxicity induction, CellTiter-Glo, 5 h incubation, median.
[10] abbreviates: Homo sapiens, SU-DHL-5, 5 h, read-out: Cytotox SUDHL5 [M] (median), SUDHL5 cells, cytotoxicity induction, CellTiter-Glo, 5 h incubation, median.

Counter-ions that a name gives are not always drawn. Like-named read-outs stand apart in the source and are kept apart here.

Chain of MCL-1 (Q07820 whole entry): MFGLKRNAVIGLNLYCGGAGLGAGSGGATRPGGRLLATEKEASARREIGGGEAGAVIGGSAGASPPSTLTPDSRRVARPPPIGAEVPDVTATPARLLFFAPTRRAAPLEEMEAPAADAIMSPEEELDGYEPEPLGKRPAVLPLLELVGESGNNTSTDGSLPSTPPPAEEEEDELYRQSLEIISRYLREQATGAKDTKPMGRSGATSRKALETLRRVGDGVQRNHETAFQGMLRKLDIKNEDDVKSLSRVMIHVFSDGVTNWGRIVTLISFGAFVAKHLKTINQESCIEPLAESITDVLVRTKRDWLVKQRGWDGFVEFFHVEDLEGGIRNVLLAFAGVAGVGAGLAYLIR

Regarding `Cc1ccc2c(C(C)CCOc3cccc4ccccc34)c(C(=O)O)n3c2c1-c1c(C)nn(C)c1COCCCC3` (single isomer, unassigned) [Example 258, 1,3,4-trimethyl-7-[4-(naphthalen-1-yloxy)butan-2-yl]-1,10,11,12,13,15-hexahydropyrazolo[4′,3′:9,10][1,6]oxazacycloundecino[8,7,6-hi]indole-8-carboxylic Acid], the IC50 against MCL-1 is 12000 nM; in the series with SUDHL5 [3], 1.92e-05 M; in the series with SUDHL10 [4], 1.16e-05 M; with A2780, 2.3e-05 M; with SUDHL5 [5] (setting [7]), over 3.3e-05 M; in the series with SUDHL10 [6] (setting [8]), over 3.3e-05 M. The EC50 with SUDHL5 [1] and in the series with SUDHL10 [2] was over 33 µM each time.

Regarding `Cc1ccc2c(C(C)CCOc3cccc4ccccc34)c(C(=O)O)n3c2c1-c1c(C)nn(C)c1COCCCC3` (single isomer, unassigned) [Example 259, 1,3,4-trimethyl-7-[4-(naphthalen-1-yloxy)butan-2-yl]-1,10,11,12,13,15-hexahydropyrazolo[4′3′:9,10][1,6]oxazacycloundecino[8,7,6-hi]indole-8-carboxylic Acid], the IC50 against MCL-1 was 577 nM; in the series with SUDHL5 [3], over 3.3e-05 M; in the series with SUDHL10 [4], 2.96e-05 M; in the series on A2780, 2.21e-05 M; with SUDHL5 [5] (setting [7]), over 3.3e-05 M; in the series on SUDHL10 [6] (setting [8]) it was over 3.3e-05 M. In addition, the EC50 (in general, the midpoint of the concentration-response curve) in the series on SUDHL5 [1] is 31.3 µM; in the series on SUDHL10 [2], over 33 µM.

`Cc1cc(OCCCc2c(C(=O)O)n3c4c(cccc24)-c2c(C)nn(C)c2COCCCC3)cc(C)c1Cl` (single isomer, unassigned; enantiomer 1) [Example 010, 7-[3-(4-chloro-3,5-dimethylphenoxy)propyl]-1,3-dimethyl-1,10,11,12,13,15-hexahydropyrazolo[4′,3′:9,10][1,6]oxazacycloundecino[8,7,6-hi]indole-8-carboxylic acid-N-ethylethanamine Salt (Enantiomer 1)]: the IC50 stood at 4.96 nM at MCL-1; 1.27e-05 M with SUDHL5 [3] (Homo sapiens, SU-DHL-5, 72 h); 3.91e-06 M in the series with SUDHL10 [4]; 2.06e-05 M in the series on A2780 (Homo sapiens, A2780, 72 h); 7.4e-06 M in the series on SUDHL5 [5] (setting [7]); 2.27e-05 M with SUDHL10 [6] (setting [9]). Moreover, the EC50 turned out to be 6.62 µM with SUDHL5 [1] and 18.6 µM with SUDHL10 [2] (Homo sapiens, SU-DHL10, 3 h).

`Cc1cc(OCCCc2c(C(=O)O)n3c4c(cccc24)-c2c(C)nn(C)c2COCCC3)cc(C)c1Cl` (single isomer, unassigned; enantiomer 1) [Example 014, 1-[3-(4-chloro-3,5-dimethylphenoxy)propyl]-9,11-dimethyl-5,6,8,9-tetrahydro-4H-pyrazolo[4′,3′:8,9][1,5]oxazecino[7,6,5-hi]indole-2-carboxylic acid-N-ethylethanamine Salt (Enantiomer 1)]: the IC50 against MCL-1 is 9.95 nM; with SUDHL5 [3] (Homo sapiens, SU-DHL-5, 72 h), 2.23e-05 M; in the series on SUDHL10 [4] (Homo sapiens, SU-DHL10, 72 h), 7.24e-06 M; in the series on A2780, over 3.3e-05 M; in the series with SUDHL5 [5] (setting [10]), 2.27e-05 M; in the series on SUDHL10 [6] (setting [9]), over 3.3e-05 M. Moreover, the EC50 with SUDHL5 [1] (Homo sapiens, SU-DHL-5, 3 h) was 26.6 µM; in the series with SUDHL10 [2] (Homo sapiens, SU-DHL10, 3 h) it was over 33 µM.

For the molecule `Cc1nn(C)c2c1-c1cccc3c(CCCOc4ccc(F)c5ccccc45)c(C(=O)O)n(c13)CCCCOC2` (single isomer, unassigned; enantiomer 1) [Example 022, 7-{3-[(4-fluoronaphthalen-1-yl)oxy]propyl}-1,3-dimethyl-1,10,11,12,13,15-hexahydropyrazolo[4′,3′:9,10][1,6]oxazacycloundecino[8,7,6-hi]indole-8-carboxylic Acid-N-ethylethanamine Salt (Enantiomer 1)], the IC50 was determined as 1.63 nM at MCL-1; 7.53e-06 M with SUDHL5 [3] (Homo sapiens, SU-DHL-5, 72 h); 6.52e-06 M with SUDHL10 [4] (Homo sapiens, SU-DHL10, 72 h); 2.59e-05 M in the series with A2780 (Homo sapiens, A2780, 72 h); 4.08e-06 M in the series with SUDHL5 [5] (setting [7]); 2.02e-05 M in the series on SUDHL10 [6] (setting [8]). The EC50 amounted to 4.19 µM in the series with SUDHL5 [1] (Homo sapiens, SU-DHL-5, 3 h) and 17.6 µM in the series with SUDHL10 [2].

As to `Cc1ccc2c(CCCOc3cccc4ccccc34)c(C(=O)O)n3c2c1-c1c(C)nn(C)c1COCCC3` (single isomer, unassigned; enantiomer 1) [Example 025, (+)-9,11,12-trimethyl-1-[3-(naphthalen-1-yloxy)propyl]-5,6,8,9-tetrahydro-4H-pyrazolo[4′,3′:8,9][1,5]oxazecino[7,6,5-hi]indole-2-carboxylic acid-N-ethylethanamine Salt (Enantiomer 1)], the IC50 against MCL-1 was 1.84 nM; with SUDHL5 [3] (Homo sapiens, SU-DHL-5, 72 h), 6.44e-06 M; with SUDHL10 [4] (Homo sapiens, SU-DHL10, 72 h), 4.29e-06 M; in the series with A2780 it was over 3.3e-05 M; in the series with A2780 (Homo sapiens, A2780, 72 h), 3.04e-05 M; in the series on SUDHL5 [5] (setting [7]), 2.98e-06 M. In addition, the IC50 with SUDHL10 [6] (setting [8]) was 8.77e-06 M. For the same molecule, the EC50 in the series with SUDHL5 [1] is 3.04 µM; with SUDHL10 [2] (Homo sapiens, SU-DHL10, 3 h), 11.1 µM.

With `Cc1ccc2c(CCCOc3cccc4ccccc34)c(C(=O)O)n3c2c1-c1c(C)nn(C)c1COCCCC3` (single isomer, unassigned; enantiomer 1) [Example 028, 1,3,4-trimethyl-7-[3-(naphthalen-1-yloxy)propyl]-1,10,11,12,13,15-hexahydropyrazolo[4′,3′:9,10][1,6]oxazacycloundecino[8,7,6-hi]indole-8-carboxylic acid-N-ethylethanamine Salt (Enantiomer 1)], the IC50 at MCL-1 is 234 nM; in the series on SUDHL5 [3] (Homo sapiens, SU-DHL-5, 72 h) it was 2.97e-05 M; with SUDHL10 [4] (Homo sapiens, SU-DHL10, 72 h) it was 1.81e-05 M; in the series on A2780 (Homo sapiens, A2780, 72 h), 1.94e-05 M; in the series on SUDHL5 [5] (setting [10]) it was over 3.3e-05 M; with SUDHL10 [6] (setting [9]), over 3.3e-05 M. Besides, the EC50 in the series on SUDHL5 [1] (Homo sapiens, SU-DHL-5, 3 h) is over 33 µM; in the series on SUDHL10 [2] (Homo sapiens, SU-DHL10, 3 h) it was over 33 µM.

On to `Cc1cc2c(OCCCc3c(C(=O)O)n4c5c(cccc35)-c3c(C)nn(C)c3COCCCC4)cccc2cc1F` (single isomer, unassigned; enantiomer 1) [Example 050, 7-{3-[(6-fluoro-7-methylnaphthalen-1-yl)oxy]propyl}-1,3-dimethyl-1,10,11,12,13,15-hexahydropyrazolo[4′,3′:9,10][1,6]oxazacycloundecino[8,7,6-hi]indole-8-carboxylic acid-N-ethylethanamine Salt (Enantiomer 1)], for which the IC50 against MCL-1 turned out to be 8.82 nM; in the series on SUDHL5 [3] (Homo sapiens, SU-DHL-5, 72 h), 1.41e-05 M; with SUDHL10 [4] (Homo sapiens, SU-DHL10, 72 h), 7.75e-06 M; in the series on A2780 (Homo sapiens, A2780, 72 h) it was 3.01e-05 M; in the series on SUDHL5 [5] (setting [7]), 4.45e-06 M; with SUDHL10 [6] (setting [8]) it was 9.61e-06 M. Further, the EC50 with SUDHL5 [1] was determined as 6.3 µM; in the series with SUDHL10 [2] (Homo sapiens, SU-DHL10, 3 h), 18.8 µM.

Consider `COCc1c2c(nn1C)COCCCCn1c(C(=O)O)c(CCCOc3cccc4ccccc34)c3cccc-2c31` (single isomer, unassigned; enantiomer 1) [Example 100, 3-(methoxymethyl)-2-methyl-7-[3-(naphthalen-1-yloxy)propyl]-2,10,11,12,13,15-hexahydropyrazolo[4′,3′:9,10][1,6]oxazacycloundecino[8,7,6-hi]indole-8-carboxylic acid-N-ethylethanamine Salt (Enantiomer 1)], for which the IC50 on MCL-1 was 42.4 nM; with SUDHL5 [3], 1.61e-05 M; in the series with SUDHL10 [4], 1.71e-05 M; in the series with A2780 (Homo sapiens, A2780, 72 h), over 3.3e-05 M; with SUDHL5 [5] (setting [7]), over 3.3e-05 M; in the series with SUDHL10 [6] (setting [8]), over 3.3e-05 M. The EC50 in the series with SUDHL5 [1] and in the series with SUDHL10 [2] was over 33 µM throughout.

Source of the values: patent publication US10981932B2, “Macrocyclic indole derivatives” (Bayer Aktiengesellschaft, priority 2016, dated 2021).
